According to US20250161290A1, “CO-CRYSTALS” (CereSpir Incorporated, priority 2021, published 2025):
≈ marks a conversion by molar mass, not a printed value.

How the values were obtained:
[1] = Consolidated qualitative solubility results (Tables 6 and 8); conditions: for qualitative solvent solubility overlaid with cocrystallization screens' results: Table 8, numbers are molar concentrations pending investigation; for consolidated solubility result: Table 6
[2] = Coformer solubility assessment in organic solvents (qualitative); assay type: physicochemical; conditions: gentle heating 45° C. if required; for solubility: organic solvent or mixture, thermodynamic from solid
Experimental: Coformer solubility assessment was then performed. The following solvents were selected under these solvent classifications, which represent typical manufacturing solvents and have good solvent-solvent miscibility: • 1. Aprotic Polar: acetone, ethyl acetate, acetonitrile; • 2. Hydrogen Bond Donor: ethanol, methanol; and • 3. Electron Pair Donor: MTBE instead of diethyl ether.
Approximately 0.1 mmol of the coformer was weighed out into a 1-dram vial, enough solvent was added to achieve a 0.2 M concentration, and if required, gentle heating was applied at 45° C. for about 1 minute. […] After 65 hours, observations were made to determine if the coformers had remained in solution.

[3] = Coformer and CSP-1103 aqueous solubility assessment (qualitative); assay type: physicochemical; conditions: water, thermodynamic from solid, 0.05 M aqueous concentration, gentle heating at 45° C. for 1 minute
Experimental: In a 1-dram vial, enough solvent was added to achieve a 0.05 M aqueous concentration along with some gentle heating at 45° C. for 1 minute to determine if the material would completely dissolve. After 24 hours, observations were made to determine if the material had remained in solution.

[4] = Dynamic Vapor Sorption (DVS) water sorption/desorption; assay type: physicochemical
Experimental: (§1) Samples are analyzed using a TA Instruments Q5000SA gravimetric water sorption analyzer. The relative humidity (RH) is adjusted in 10% RH increments between 5-95% (±1% RH) at 25° C. (±0.5%° C.). The mass of a sample is continuously monitored and recorded with respect to RH and time with criteria for mass equilibrium set as a percent mass change <0.0100 for 5 minutes with a time limit of 720 minutes per step. The humidity is controlled by mixing dry and wet nitrogen streams with a total flow rate of 200 mL/min. The instrument control and data analysis are operated under Advantage for Q Series and Universal Analysis software, respectively.

[5] = XRPD of pre-exposed and post-exposed DVS samples (solid form stability); assay type: physicochemical; conditions: two DVS sorption/desorption cycles, 5-95% RH, 25° C.
Experimental: X-ray powder diffraction analyses are obtained using a BRUKER D8 ADVANCE equipped with a Cu radiation source operated at 40 kV and 40 mA (λ=1.54 Å after Ni filtering) configured in a Bragg-Brentano geometry, equipped with a 90-position AUTO-CHANGER and a silicon strip detector (SSD160-2). A coupled theta-two theta continuous PSD (Position Sensitive Device) fast scan from 4 to 40 degrees are collected over approximately 32 minutes (0.5 sec/0.01° step). A sample is placed onto a polished zero-background silicon wafer by gently distributing onto the flat surface and is analyzed as a flat plate specimen.
as §1

[6] = MTBE, organic solvent or mixture
[7] = acetonitrile, organic solvent or mixture
[8] = ethyl acetate, organic solvent or mixture
[9] = ethanol, organic solvent or mixture

Row | qualitative solvent solubility overlaid with cocrystallization screens' results ([1]; acetone (BP 56° C.)) | consolidated solubility result ([1]; acetone) | qualitative solvent solubility overlaid with cocrystallization screens' results ([1]; ethanol (BP 79° C.)) | consolidated solubility result ([1]; ethanol) | qualitative solvent solubility overlaid with cocrystallization screens' results ([1]; methanol (BP 65° C.)) | consolidated solubility result ([1]; methanol) | solubility ([2]; MTBE) | solubility ([2]; acetone) | solubility ([2]; ethanol) | solubility ([2]; methanol) | solubility (physchem; [6]) | solubility (physchem; [8]) | solubility [3] | qualitative solvent solubility overlaid with cocrystallization screens' results ([1]; acetonitrile (BP 82° C.)) | consolidated solubility result ([1]; acetonitrile) | consolidated solubility result ([1]; ethyl acetate) | qualitative solvent solubility overlaid with cocrystallization screens' results ([1]; water (BP 100° C.)) | consolidated solubility result ([1]; water) | solubility ([2]; acetonitrile) | solubility ([2]; ethyl acetate) | Compound | also measured
1 | ✓ | ✓ | ✓ | ✓ | ✓ | ✓ | < 50 mM | > 100 mM | > 200 mM | > 200 mM | < 50 mM | < 50 mM | < 50 mM |  |  |  |  |  |  |  | O=C(O)/C=C/c1ccc(O)c(O)c1 [caffeic acid] | solubility (physchem; [7]): < 50 mM; solubility (physchem; water): < 50 mM
2 | ✓ | ✓ | ✓ | ✓ | ✓ | ✓ | > 200 mM | > 200 mM | > 200 mM | > 200 mM |  | 200 mM (≈ 30.4 mg/mL) | > 50 mM | ✓ | ✓ | ✓ | ✓ | ✓ | > 200 mM | > 200 mM | COc1cc(C=O)ccc1O [vanillin] | qualitative solvent solubility overlaid with cocrystallization screens' results ([1]; MTBE (BP 55° C.)): ✓; consolidated solubility result ([1]; MTBE): ✓

Further lines, the compound ahead of its results:

Row | Compound | qualitative solvent solubility overlaid with cocrystallization screens' results ([1]; acetone (BP 56° C.)) | consolidated solubility result ([1]; acetone) | qualitative solvent solubility overlaid with cocrystallization screens' results ([1]; ethanol (BP 79° C.)) | consolidated solubility result ([1]; ethanol) | qualitative solvent solubility overlaid with cocrystallization screens' results ([1]; methanol (BP 65° C.)) | consolidated solubility result ([1]; methanol) | solubility ([2]; MTBE) | solubility ([2]; acetone) | solubility ([2]; ethanol) | solubility ([2]; methanol) | solubility (physchem; [6]) | solubility (physchem; [8]) | solubility [3] | qualitative solvent solubility overlaid with cocrystallization screens' results ([1]; acetonitrile (BP 82° C.)) | consolidated solubility result ([1]; acetonitrile) | consolidated solubility result ([1]; ethyl acetate) | qualitative solvent solubility overlaid with cocrystallization screens' results ([1]; water (BP 100° C.)) | consolidated solubility result ([1]; water) | solubility ([2]; acetonitrile) | solubility ([2]; ethyl acetate) | also measured
3 | NC(=O)c1cccnc1 [nicotinamide] |  | ✓ |  | ✓ | ✓ | ✓ |  | > 200 mM | > 200 mM | > 200 mM | < 50 mM | 50 mM (≈ 6.11 mg/mL) | > 50 mM | ✓ | ✓ | ✓ | ✓ | ✓ | > 100 mM | > 50 mM | Mass Change, Adsorption ([4]; DVS cycle 1 of 2, RH 5 to 95%): 1.11%; Mass Change, Desorption ([4]; DVS cycle 1 of 2, RH 95 to 5%): −1.11%; Mass Change, Adsorption ([4]; DVS cycle 2 of 2, RH 5 to 95%): 1.18%; Mass Change, Desorption ([4]; DVS cycle 2 of 2, RH 95 to 5%): −1.18%; solid form change after DVS exposure (XRPD pre- vs post-exposed) [5]: no solid state form changes
4 | N[C@@H](Cc1ccccc1)C(=O)O [phenylalanine] |  |  |  |  |  |  |  |  |  |  | < 50 mM | < 50 mM | > 50 mM |  |  |  | ✓ | ✓ |  |  | solubility (physchem; acetone, organic solvent or mixture): < 50 mM; solubility (physchem; [7]): < 50 mM; solubility (physchem; [9]): < 50 mM; solubility (physchem; methanol, organic solvent or mixture): < 50 mM
5 | O=C1NS(=O)(=O)c2ccccc21 [saccharin] | ✓ | ✓ |  | ✓ | ✓ | ✓ |  | > 200 mM | > 100 mM | > 200 mM |  | 200 mM (≈ 36.6 mg/mL) | < 50 mM | ✓ | ✓ | ✓ |  |  | > 200 mM | > 200 mM | qualitative solvent solubility overlaid with cocrystallization screens' results ([1]; MTBE (BP 55° C.)): ✓; consolidated solubility result ([1]; MTBE): ✓; qualitative solubility at 0.05 M ([2]; MTBE): Y✓; solubility (physchem; [9]): 100 mM (≈ 18.3 mg/mL); solubility (physchem; water): < 50 mM
